In patent publication EP2571508B1, “PROCESS FOR PRODUCING A SHRIMP HYDROLYSATE USING ELECTRODIALYSIS” (Marealis AS, priority 2010, dated 2011):
Peptide text beside a SMILES is read from it.

Molecular target: T1, ACE (Oryctolagus cuniculus, UniProt P12822)
T1 construct: purchased Sigma A 6778
T1 sequence (P12822 34-1310): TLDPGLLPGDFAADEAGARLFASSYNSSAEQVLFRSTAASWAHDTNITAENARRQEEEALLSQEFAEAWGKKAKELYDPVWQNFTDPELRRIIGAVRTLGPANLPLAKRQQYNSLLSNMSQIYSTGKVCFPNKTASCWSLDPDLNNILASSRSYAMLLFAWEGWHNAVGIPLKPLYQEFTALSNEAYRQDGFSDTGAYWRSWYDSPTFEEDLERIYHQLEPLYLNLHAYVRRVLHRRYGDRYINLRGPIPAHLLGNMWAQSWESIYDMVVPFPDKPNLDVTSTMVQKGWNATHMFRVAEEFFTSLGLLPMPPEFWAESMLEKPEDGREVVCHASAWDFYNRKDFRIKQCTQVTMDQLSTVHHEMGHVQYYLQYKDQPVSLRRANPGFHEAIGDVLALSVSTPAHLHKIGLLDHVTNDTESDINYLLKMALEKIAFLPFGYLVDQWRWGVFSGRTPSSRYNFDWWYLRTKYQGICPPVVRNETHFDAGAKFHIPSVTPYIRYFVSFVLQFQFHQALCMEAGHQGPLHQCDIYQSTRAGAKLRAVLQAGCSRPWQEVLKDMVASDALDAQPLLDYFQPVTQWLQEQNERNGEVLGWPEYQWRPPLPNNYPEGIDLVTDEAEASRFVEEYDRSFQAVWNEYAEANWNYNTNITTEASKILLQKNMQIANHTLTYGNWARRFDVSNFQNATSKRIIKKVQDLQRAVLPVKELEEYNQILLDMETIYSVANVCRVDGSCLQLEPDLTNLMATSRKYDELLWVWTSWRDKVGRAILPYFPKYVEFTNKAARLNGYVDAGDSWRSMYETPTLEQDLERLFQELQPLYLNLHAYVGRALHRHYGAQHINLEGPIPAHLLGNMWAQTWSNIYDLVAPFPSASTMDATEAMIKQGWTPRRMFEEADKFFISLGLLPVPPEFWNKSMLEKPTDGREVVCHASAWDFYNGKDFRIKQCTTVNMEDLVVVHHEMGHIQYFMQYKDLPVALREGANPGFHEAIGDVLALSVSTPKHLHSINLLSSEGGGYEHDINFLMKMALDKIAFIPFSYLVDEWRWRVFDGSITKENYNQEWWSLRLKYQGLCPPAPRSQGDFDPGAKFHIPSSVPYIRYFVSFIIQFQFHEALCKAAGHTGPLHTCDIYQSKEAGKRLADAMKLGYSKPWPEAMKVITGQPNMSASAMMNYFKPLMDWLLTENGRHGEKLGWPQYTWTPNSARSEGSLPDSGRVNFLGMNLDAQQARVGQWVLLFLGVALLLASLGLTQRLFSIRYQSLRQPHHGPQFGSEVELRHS
Test: ACE-inhibitory activity, Cushman and Cheung method (hippuric acid from HHL)
Format: biochemical
Conditions: synthesized peptides
Text: The hydrolysate of the present invention has ACE-inhibitory activity. ACE-inhibitory activity may be assayed using known methods, for example based on the method reported by Cushman and Cheung (1971) by measuring the end product hippuric acid (HA) from the enzymatic reaction between ACE (Sigma A 6778) and the substrate HHL (Sigma H 1635). (CUSHMAN, D. W. & CHEUNG, H. S. (1971). Concentrations of Angiotensin-Converting Enzyme in Tissues of Rat. Biochimica Et Biophysica Acta 250(1), 261-265). A different suitable assay is disclosed by Vermeirssen et al. (2002), J. Biochem Biophys. Methods 51 (2002), pages 75-87. Briefly, this is a spectrophotometric method in which ACE inhibition is measured using the substrate furanacryloyl-Phe-Gly-Gly and rabbit lung acetone extract as the ACE source. The IC50 may be determined.
The peptide composition of the RP-HPLC fractions was analysed using LCMS (liquid chromatography mass spectrometry) and individual peptides were sequenced using LC-MS/MS (liquid chromatography - tandem mass spectrometry). Peptides having the sequences identified by LC-MS/MS were then synthesized and analysed. Molecular weight and pl were calculated by ExPASy Proteomics Server. ACE-inhibitory activity was determined based on the Cushman and Cheung method mentioned elsewhere herein and expressed as the IC50 (concentration that inhibits 50% of enzyme activity).

| SMILES | IC50 [µM] |
| --- | --- |
| CC(C)C[C@H](NC(=O)[C@@H](N)Cc1ccccc1)C(=O)O [FL] (H-Phe-Leu-OH) | 380 |
| CC(C)C[C@H](NC(=O)[C@@H](N)CCCCN)C(=O)N1CCC[C@H]1C(=O)O [KLP] (H-Lys-Leu-Pro-OH) | 200 |
| CC(C)C[C@H](N)C(=O)N[C@@H](CC(N)=O)C(=O)N[C@@H](C)C(=O)O [LNA*] (H-Leu-Asn-Ala-OH) | 200 |
| CC(C)C[C@H](N)C(=O)N[C@H](C(=O)N[C@@H](C)C(=O)N[C@@H](Cc1c[nH]cn1)C(=O)O)C(C)C [LVAH] (H-LVAH-OH) | > 300 |
| CC(C)C[C@H](N)C(=O)N[C@H](C(=O)N[C@@H](CCCCN)C(=O)O)C(C)C [LVK] (H-Leu-Val-Lys-OH) | 225 |
| CC(C)C[C@H](N)C(=O)N[C@@H](Cc1ccc(O)cc1)C(=O)N[C@@H](CCCCN)C(=O)O [LYK] (H-Leu-Tyr-Lys-OH) | 250 |
| NCCCC[C@H](NC(=O)[C@@H]1CCCN1C(=O)[C@@H](N)CC(N)=O)C(=O)O [NPK*] (H-Asn-Pro-Lys-OH) | > 300 |
| CC(C)C[C@H](NC(=O)[C@@H](N)C(C)C)C(=O)N[C@@H](C)C(=O)N[C@@H](Cc1c[nH]cn1)C(=O)O [VLAH*] (H-VLAH-OH) | > 300 |

Continued, values first:

| IC50 [µM] | SMILES |
| --- | --- |
| > 300 | CC(C)C[C@H](NC(=O)[C@H](C)N)C(=O)N1CCC[C@H]1C(=O)N[C@@H](Cc1c[nH]cn1)C(=O)O [ALPH] (H-ALPH-OH) |
| 460 | CC(C)C[C@H](N)C(=O)N[C@@H](Cc1ccccc1)C(=O)O [LF] (H-Leu-Phe-OH) |
| > 300 | CC(C)C[C@H](NC(=O)[C@H](CC(C)C)NC(=O)[C@@H](N)CC(C)C)C(=O)N[C@@H](CCCCN)C(=O)O [LLLK] (H-LLLK-OH) |
| > 300 | CC(C)C[C@H](NC(=O)[C@@H](N)CC(C)C)C(=O)N[C@H](C(=O)N[C@@H](CCCCN)C(=O)O)[C@@H](C)O [LLTK] (H-LLTK-OH) |
| > 300 | CC(C)C[C@H](N)C(=O)N[C@@H](CC(N)=O)C(=O)N1CCC[C@H]1C(=O)N[C@@H](CCCCN)C(=O)O [LNPK] (H-LNPK-OH) |
| > 300 | CC(C)C[C@H](N)C(=O)N[C@H](C(=O)N[C@@H](C)C(=O)N[C@@H](CCCCN)C(=O)O)C(C)C [LVAK] (H-LVAK-OH) |
| > 300 | CC(C)[C@H](NC(=O)[C@@H](N)CC(N)=O)C(=O)N[C@@H](Cc1ccc(O)cc1)C(=O)O [NVY] (H-Asn-Val-Tyr-OH) |
